Our source for the IC50 values is US11168095B2, “ASK1 inhibiting agents” (BIOGEN MA INC., priority 2017, dated 2021).

Where two headings read alike, the source gives them in different places.

A word on the IC50: it is the concentration at which inhibition is half-maximal.

Test [1] deals with ASK1 T838 auto phosphorylation in HEK-293T cells (Homo sapiens (Human), UniProt Q99683). As to the kind of experiment: ASK1 (AUTO PHOS T838) assay, MSD format. It counts as cell-based. On the procedure:
The plates were incubated at 37° C. overnight. Media on plates was changed to OPTI-MEM, serum free media and cells were transfected with 9 μg of ASK1-V5 tagged full length plasmid using Lipofectamine 2000 (Invitrogen) and the plates were incubated at 37° C. overnight. Cells were trypsinized, counted on Nexcellometer and plated into 96 well tissue culture plates with 100,000 cells/well and 200 μL media. Cells were incubated for 4 hr at 37° C. then ASK1 compounds were added using a HP 300e. Compounds were tested at 20 μM with 3 fold, 10 point dilution points then incubated for 1 hr at 37° C. A lysis buffer (Cell Signaling) was prepared with protease and phosphatase inhibitor and maintained at 4° C. until use. Media from cells was discarded and 120 μL of cold lysis buffer was added to the cells, the plate was shaken 4° C. for 1 hr. Lysate was mixed using Apricot liquid handler; aspirating up and down 16 times at high speed using 50 μL volume. […] Plates were then incubated on a plate shaker overnight at 4° C. Plates were washed 3× with MSD wash buffer and 50 μL of rabbit anti-pASK1 T838 antibody was added to the wells and incubated for 2 hr at room temperature on a plate shaker. Plates were then washed and 50 μL of goat anti-rabbit sulfa-tag (1:500 dilution) was added to wells, and incubated for 1 hr at room temperature on a plate shaker. […] Plates were immediately read on a MSD Instrument Reader where chemoluminecense signal was measured. Data was analyzed using Graph Pad or Genedata, the data was normalized and plotted, % activity versus log of compound concentration. The IC50 values were obtained from a 4 parameter fit.

The target in another test is ASK1/MAP3K5 (Homo sapiens (Human), UniProt Q99683). Description: ASK1/MAP3K5 assay by Reaction Biology Corp. It counts as biochemical. On the procedure: ASK1/MAP3K5 was used as the protein kinase and 20 μM of myelin basic protein (MBP) and 10 μM ATP were used as the substrate.
ASK1/MAP3K5, sequence (Q99683 whole entry): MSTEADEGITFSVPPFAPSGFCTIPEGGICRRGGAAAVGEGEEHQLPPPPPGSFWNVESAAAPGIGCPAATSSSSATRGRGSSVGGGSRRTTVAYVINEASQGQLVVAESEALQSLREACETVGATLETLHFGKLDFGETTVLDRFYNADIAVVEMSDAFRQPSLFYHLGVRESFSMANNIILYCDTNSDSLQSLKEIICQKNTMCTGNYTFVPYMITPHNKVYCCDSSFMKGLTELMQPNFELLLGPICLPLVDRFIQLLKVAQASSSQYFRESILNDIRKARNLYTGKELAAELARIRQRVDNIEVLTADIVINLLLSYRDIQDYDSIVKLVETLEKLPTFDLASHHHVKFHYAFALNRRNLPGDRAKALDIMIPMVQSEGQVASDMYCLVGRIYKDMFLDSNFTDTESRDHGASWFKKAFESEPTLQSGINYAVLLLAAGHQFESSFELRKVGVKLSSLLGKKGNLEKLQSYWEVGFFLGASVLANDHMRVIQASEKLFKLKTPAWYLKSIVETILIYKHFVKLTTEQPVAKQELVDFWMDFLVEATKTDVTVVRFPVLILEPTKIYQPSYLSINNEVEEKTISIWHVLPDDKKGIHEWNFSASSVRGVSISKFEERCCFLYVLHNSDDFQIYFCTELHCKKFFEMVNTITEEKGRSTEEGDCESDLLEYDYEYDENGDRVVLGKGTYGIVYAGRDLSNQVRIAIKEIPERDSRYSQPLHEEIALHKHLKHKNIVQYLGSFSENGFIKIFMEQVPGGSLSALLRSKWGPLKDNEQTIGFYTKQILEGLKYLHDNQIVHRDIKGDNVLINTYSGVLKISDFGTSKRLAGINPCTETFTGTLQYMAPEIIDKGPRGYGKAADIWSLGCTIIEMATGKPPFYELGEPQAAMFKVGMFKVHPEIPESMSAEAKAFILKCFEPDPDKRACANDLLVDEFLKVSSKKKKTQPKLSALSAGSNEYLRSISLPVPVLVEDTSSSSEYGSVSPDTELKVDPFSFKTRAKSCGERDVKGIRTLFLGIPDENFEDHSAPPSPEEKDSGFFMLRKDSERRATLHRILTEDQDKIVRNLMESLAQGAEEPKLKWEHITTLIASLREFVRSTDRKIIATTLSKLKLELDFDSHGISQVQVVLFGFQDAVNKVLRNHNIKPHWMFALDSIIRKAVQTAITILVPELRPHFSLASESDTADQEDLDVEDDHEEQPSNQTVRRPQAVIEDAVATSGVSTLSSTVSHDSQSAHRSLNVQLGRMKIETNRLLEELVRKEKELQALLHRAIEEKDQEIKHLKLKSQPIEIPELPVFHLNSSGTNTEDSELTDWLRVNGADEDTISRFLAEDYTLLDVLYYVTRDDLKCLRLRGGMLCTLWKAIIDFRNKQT
The mark [2] stands for this setting: HEK 293T cells transfected with ASK1-V5 full length plasmid, compounds 1 hr at 37° C., read-out: IC50.
Where [3] appears, read: 20 μM myelin basic protein (MBP), 10 μM ATP.

ASK1 T838 auto phosphorylation in HEK-293T cells, sequence (Q99683 whole entry): as above

Turning to `C[C@H]1CCCn2cnnc2-c2cccc(n2)NC(=O)c2cc(C#N)ccc2O1` [Example 150, (S)-7-Methyl-4-oxo-1^4H-6-oxa-3-aza-2(2,6)-pyridina-1(3,4)-triazola-5(1,2)-benzenacyclodecaphane-5^5-carbonitrile], the concentration for half-maximal inhibition (IC50) was < 1000 nM in test [1] (setting [2]) and 100 to 1000 nM on ASK1/MAP3K5 (setting [3]).

As to `O=C1Nc2cccc(n2)-c2nncn2CCCCOc2cc(F)c(N3CC4CC(C3)O4)cc21` [Example 72, 5^5-(6-Oxa-3-azabicyclo[3.1.1]heptan-3-yl)-5^4-fluoro-1^4H-6-oxa-3-aza-2(2,6)-pyridina-1(3,4)-triazola-5(1,2)-benzenacyclodecaphan-4-one], the IC50 is < 1000 nM in test [1] (setting [2]) and < 100 nM on ASK1/MAP3K5 (setting [3]).

For `C[C@H]1CCCOc2cc(F)c(Br)cc2C(=O)Nc2cccc(n2)-c2nncn21` [Example 101, (S)-5^5-Bromo-5^4-fluoro-10-methyl-1^4H-6-oxa-3-aza-2(2,6)-pyridina-1(3,4)-triazola-5(1,2)-benzenacyclodecaphan-4-one], the values for the concentration for half-maximal inhibition (IC50) (in test [1] (setting [2]); at ASK1/MAP3K5 (setting [3])) were < 1000 nM and < 100 nM, respectively.

As for `O=C1Nc2cccc(n2)-c2nncn2CCCCOc2cc(F)c(-c3cncnc3)cc21` [Example 60, 5^4-Fluoro-5^5-(pyrimidin-5-yl)-1^4H-6-oxa-3-aza-2(2,6)-pyridina-1(3,4)-triazola-5(1,2)-benzenacyclodecaphan-4-one], the IC50 in test [1] (setting [2]) is < 1000 nM; on ASK1/MAP3K5 (setting [3]), < 100 nM.

`O=C1Nc2cccc(n2)-c2nncn2C/C=C\CCOc2cc(F)c(-c3ccncc3)cc21` [Example 180, (Z)-5^4-Fluoro-5^5-(pyridin-4-yl)-1^4H-6-oxa-3-aza-2(2,6)-pyridina-1(3,4)-triazola-5(1,2)-benzenacycloundecaphan-9-en-4-one]: the half-inhibitory concentration (IC50) was < 1000 nM in test [1] (setting [2]) and < 100 nM at ASK1/MAP3K5 (setting [3]).

For the compound `O=C1Nc2cccc(n2)-c2nncn2C/C=C\CCOc2cc(F)c(N3CCOCC3)cc21` [Example 181, (Z)-5^4-Fluoro-5^5-morpholino-1^4H-6-oxa-3-aza-2(2,6)-pyridina-1(3,4)-triazola-5(1,2)-benzenacycloundecaphan-9-en-4-one], the IC50 is < 1000 nM in test [1] (setting [2]) and < 100 nM against ASK1/MAP3K5 (setting [3]).

In the case of `Cc1ccn(-c2ccc3c(c2)C(=O)Nc2cccc(n2)-c2nncn2CCCCO3)n1` [Example 45, 5^5-(3-Methyl-1H-pyrazol-1-yl)-1^4H-6-oxa-3-aza-2(2,6)-pyridina-1(3,4)-triazola-5(1,2)-benzenacyclodecaphan-4-one], the results for the IC50 (in test [1] (setting [2]); on ASK1/MAP3K5 (setting [3])) were < 1000 nM and < 100 nM, respectively.

Regarding `C[C@H]1CCCOc2cc(F)c(C3=CCOCC3)cc2C(=O)Nc2cccc(n2)-c2nncn21` [Example 108, (S)-5^5-(3,6-Dihydro-2H-pyran-4-yl)-5^4-fluoro-10-methyl-1^4H-6-oxa-3-aza-2(2,6)-pyridina-1(3,4)-triazola-5(1,2)-benzenacyclodecaphan-4-one], the IC50 in test [1] (setting [2]) was < 1000 nM; on ASK1/MAP3K5 (setting [3]) it was < 100 nM.

Turning to `C[C@H]1CCCOc2ccc(F)cc2C(=O)Nc2cccc(n2)-c2nncn21` [Example 99, (S)-5^5-Fluoro-10-methyl-1^4H-6-oxa-3-aza-2(2,6)-pyridina-1(3,4)-triazola-5(1,2)-benzenacyclodecaphan-4-one], the IC50 in test [1] (setting [2]) was < 1000 nM; on ASK1/MAP3K5 (setting [3]) it was < 100 nM.

Turning to `C[C@H]1CCCOc2cc(F)c(-c3cnn(C)c3)cc2C(=O)Nc2cccc(n2)-c2nncn21` [Example 114, (S)-5^4-Fluoro-10-methyl-5^5-(1-methyl-1H-pyrazol-4-yl)-1^4H-6-oxa-3-aza-2(2,6)-pyridina-1(3,4)-triazola-5(1,2)-benzenacyclodecaphan-4-one], the results for the IC50 (in test [1] (setting [2]); against ASK1/MAP3K5 (setting [3])) were < 1000 nM and < 100 nM, respectively.

For the compound `C[C@H]1CCCn2cnnc2-c2cccc(n2)NC(=O)c2cc(-c3cnn(CCN(C)C)c3)ccc2O1` [Example 146, (S)-5^5-(1-(2-(Dimethylamino)ethyl)-1H-pyrazol-4-yl)-7-methyl-1^4H-6-oxa-3-aza-2(2,6)-pyridina-1(3,4)-triazola-5(1,2)-benzenacyclodecaphan-4-one], the half-inhibitory concentration (IC50) in test [1] (setting [2]) is < 1000 nM; at ASK1/MAP3K5 (setting [3]) it was < 100 nM.

On to `O=C1Nc2cccc(n2)-c2nncn2CCCCOc2cc(F)c(-c3ccnc(F)c3)cc21` [Example 55, 5^4-Fluoro-5^5-(2-fluoropyridin-4-yl)-1^4H-6-oxa-3-aza-2(2,6)-pyridina-1(3,4)-triazola-5(1,2)-benzenacyclodecaphan-4-one], for which the IC50 is < 1000 nM in test [1] (setting [2]) and < 100 nM at ASK1/MAP3K5 (setting [3]).

`O=C1Nc2cccc(n2)-c2nncn2C/C=C\CCOc2ccccc21` [Example 174, (E)-1^4H-6-Oxa-3-aza-2(2,6)-pyridina-1(3,4)-triazola-5(1,2)-benzenacycloundecaphan-9-en-4-one]: the figures for the half-maximal inhibitory concentration (IC50) (in test [1] (setting [2]); against ASK1/MAP3K5 (setting [3])) were < 1000 nM and < 100 nM, respectively.

Turning to `CN(C)CCn1cc(-c2cc3c(cc2F)OCC/C=C\Cn2cnnc2-c2cccc(n2)NC3=O)cn1` [Example 179, (Z)-5^5-(1-(2-(Dimethylamino)ethyl)-1H-pyrazol-4-yl)-5^4-fluoro-1^4H-6-oxa-3-aza-2(2,6)-pyridina-1(3,4)-triazola-5(1,2)-benzenacycloundecaphan-9-en-4-one], the IC50 in test [1] (setting [2]) is < 1000 nM; on ASK1/MAP3K5 (setting [3]) it was < 100 nM.

Consider `C[C@H]1CCCn2cnnc2-c2cccc(n2)NC(=O)c2cc(Br)ccc2O1` [Example 136, (S)-5^5-Bromo-7-methyl-1^4H-6-oxa-3-aza-2(2,6)-pyridina-1(3,4)-triazola-5(1,2)-benzenacyclodecaphan-4-one], for which the results for the IC50 (in test [1] (setting [2]); at ASK1/MAP3K5 (setting [3])) were < 1000 nM and < 100 nM, respectively.

As for “(S)-5^4-Bromo-10-methyl-1^4H-6-oxa-3-aza-2(2,6)-pyridina-1(3,4)-triazola-5(1,2)-benzenacyclodecaphan-4-one [Example 120]”, the IC50 was < 1000 nM in test [1] (setting [2]) and < 100 nM against ASK1/MAP3K5 (setting [3]).

For the compound `O=C1Nc2cccc(n2)-c2nncn2CCCCOc2cc(F)c(-c3ccnc(C4CC4)c3)cc21` [Example 56, 5^5-(2-Cyclopropylpyridin-4-yl)-5^4-fluoro-1^4H-6-oxa-3-aza-2(2,6)-pyridina-1(3,4)-triazola-5(1,2)-benzenacyclodecaphan-4-one], the IC50 in test [1] (setting [2]) is < 1000 nM; against ASK1/MAP3K5 (setting [3]), < 100 nM.

For `O=C1Nc2cccc(n2)-c2nncn2CCCCOc2cc(F)c(N3CCOCC3)cc21` [Example 71, 5^4-Fluoro-5^5-morpholino-1^4H-6-oxa-3-aza-2(2,6)-pyridina-1(3,4)-triazola-5(1,2)-benzenacyclodecaphan-4-one], the IC50 in test [1] (setting [2]) is < 1000 nM; against ASK1/MAP3K5 (setting [3]) it was < 100 nM.

Consider `C[C@@H]1CCCn2cnnc2-c2cccc(n2)NC(=O)c2cc(Br)ccc2O1` [Example 137, (R)-5^5-Bromo-7-methyl-1^4H-6-oxa-3-aza-2(2,6)-pyridina-1(3,4)-triazola-5(1,2)-benzenacyclodecaphan-4-one], for which the 50% inhibitory concentration (IC50) in test [1] (setting [2]) was 1000 to 10000 nM; on ASK1/MAP3K5 (setting [3]) it was < 100 nM.

On to `C[C@H]1CCOc2cc(F)c(C#CC3(C)COC3)cc2C(=O)Nc2cccc(n2)-c2nncn2C1` [Example 134, (S)-5^4-Fluoro-9-methyl-5^5-((3-methyloxetan-3-yl)ethynyl)-1^4H-6-oxa-3-aza-2(2,6)-pyridina-1(3,4)-triazola-5(1,2)-benzenacyclodecaphan-4-one], for which the results for the IC50 (in test [1]; against ASK1/MAP3K5) were < 1000 nM and < 100 nM, respectively.

Regarding `C[C@H]1CCCOc2cc(S(C)(=O)=O)c(Br)cc2C(=O)Nc2cccc(n2)-c2nncn21` [Example 119, (S)-5^5-Bromo-10-methyl-5^4-(methylsulfonyl)-1^4H-6-oxa-3-aza-2(2,6)-pyridina-1(3,4)-triazola-5(1,2)-benzenacyclodecaphan-4-one], the IC50 in test [1] (setting [2]) was < 1000 nM; against ASK1/MAP3K5 (setting [3]), < 100 nM.

As to `O=C1Nc2cccc(n2)-c2nncn2CCCCOc2cc(F)c(C3CCOCC3)cc21` [Example 68, 5^4-Fluoro-5^5-(tetrahydro-2H-pyran-4-yl)-1^4H-6-oxa-3-aza-2(2,6)-pyridina-1(3,4)-triazola-5(1,2)-benzenacyclodecaphan-4-one], the IC50 was < 1000 nM in test [1] (setting [2]) and < 100 nM at ASK1/MAP3K5 (setting [3]).

Turning to `O=C1Nc2cccc(n2)-c2nncn2CCCCOc2c(Br)cccc21` [Example 165, 5^3-Bromo-1^4H-6-oxa-3-aza-2(2,6)-pyridina-1(3,4)-triazola-5(1,2)-benzenacyclodecaphan-4-one], the concentration for half-maximal inhibition (IC50) in test [1] (setting [2]) was in the range of 1000 to 10000 nM; against ASK1/MAP3K5 (setting [3]), 100 to 1000 nM.

Take `C[C@H]1CCCOc2cc(F)c(-c3cncnc3)cc2C(=O)Nc2cccc(n2)-c2nncn21` [Example 110, (S)-5^4-Fluoro-10-methyl-5^5-(pyrimidin-5-yl)-1^4H-6-oxa-3-aza-2(2,6)-pyridina-1(3,4)-triazola-5(1,2)-benzenacyclodecaphan-4-one]: the IC50 in test [1] (setting [2]) is < 1000 nM; against ASK1/MAP3K5 (setting [3]), < 100 nM.

`Cn1cc(-c2ccc3c(c2)OCCCCn2cnnc2-c2cccc(n2)NC3=O)cn1` [Example 84, 5^4-(1-Methyl-1H-pyrazol-4-yl)-1^4H-6-oxa-3-aza-2(2,6)-pyridina-1(3,4)-triazola-5(1,2)-benzenacyclodecaphan-4-one]: the IC50 in test [1] (setting [2]) is < 1000 nM; against ASK1/MAP3K5 (setting [3]) it was < 100 nM.
